Converted amounts (≈) assume the structure as drawn.
Experiments:
Format in all cases: physicochemical
[1] = DSC enthalpy of fusion and percentage residual crystallinity of co-ground compositions; settings: enthalpy of fusion of the active substance as such, before co-grinding
From the text: The compositions obtained by operating according to the examples reported below have been characterised by DSC and from the enthalpy of fusion the percentage residual crystallinity has been calculated.

[2] = Percentage of active substance released under sink conditions (dissolution speed)
Experimental: In FIGS. 5 and 6 are reported respectively the dissolution speed curves under sink conditions (% age of active substance released against time) and the to solubilisation kinetics curves under non sink conditions (concentration of active substance against time) of a hydrophobic drug (DHEA)/hydrophilic carrier combination. The dissolution speed of the DHEA from the ternary composition is markedly greater with respect to that of the DHEA as such, reaching 70% release after 15 minutes and 90% after 60 minutes, against the respective 9% and 20% for DHEA as such. Regarding the kinetics, in the ternary composition, the oversaturation reached by DHEA, which reaches a concentration of over 80 μg/ml in 2 minutes against around 50 μg/ml of DHEA as such, is evident.
(§1) Furthermore, the percentage of active substance released under sink conditions and the solubilisation kinetics under non sink conditions have been determined.

[3] = Solubilisation kinetics under non sink conditions; settings: thermodynamic from solid, in 2 minutes, read-out: concentration of DHEA reached (solubilisation kinetics, oversaturation)
Experimental: The dissolution speed of the DHEA from the ternary composition is markedly greater with respect to that of the DHEA as such, reaching 70% release after 15 minutes and 90% after 60 minutes, against the respective 9% and 20% for DHEA as such. Regarding the kinetics, in the ternary composition, the oversaturation reached by DHEA, which reaches a concentration of over 80 μg/ml in 2 minutes against around 50 μg/ml of DHEA as such, is evident.
as §1

With `CC(=O)OCC(=O)[C@@]1(O)CC[C@H]2[C@@H]3CCC4=CC(=O)CC[C@]4(C)[C@H]3[C@@H](O)C[C@@]21C` [HCA, hydrocortisone acetate] the “Active Substance Enthalpy” value [1] was 117.9 J/g.

In the case of `Cc1cc(O)c(C2CC3CCC2(C)C3(C)C)cc1C` (centres unmarked) [Xibornol, xibornol], the “Active Substance Enthalpy” value [1] is reported as 92.8 J/g.

In the case of `C[C@]12CC[C@H](O)CC1=CC[C@@H]1[C@@H]2CC[C@]2(C)C(=O)CC[C@@H]12` [DHEA, dehydroepiandrosterone], the “Active Substance Enthalpy” value [1] is reported as 100 J/g, the “percentage of active substance (DHEA) released” value ([2]; after 15 minutes) is reported as 9% and the “percentage of active substance (DHEA) released” value ([2]; after 60 minutes) is reported as 20%. It also gave a solubility kinetic at 2 min [3] of ~50 µg/mL (≈ 173 µM).

In the case of `CC(=O)N[C@@H](CS)C(=O)O` [NAC, N-acetyl cystein], the “Active Substance Enthalpy” value [1] is reported as 192.9 J/g.

With `Oc1ccc(C=Cc2cc(O)cc(O)c2)cc1` [Resveratrol, resveratrol] the “Active Substance Enthalpy” value [1] was 317.7 J/g.

Source: patent US20050255163A1, “Co-grinding process for the preparation of a ternary composition” (priority 2002, published 2005)
